# Assay results reported in US20220041606A1, “POSITIVE ALLOSTERIC MODULATORS OF THE MUSCARINIC ACETYLCHOLINE RECEPTOR M1” (Vanderbilt University, priority 2020, published 2022).
# Assays:
# human mAChR M1 [1] = molecular target: T1, human mAChR M1 (Homo sapiens, UniProt P11229); test: mAChR M1 cell-based functional assay (calcium mobilization), PAM activity: increase in the EC20 acetylcholine response; conditions: CHO-K1 cells expressing hM1; potentiation of EC20 acetylcholine response
# T1 construct: host or cells: CHO-K1 cells (ATCC), stably transfected using Lipofectamine2000
# T1 sequence (P11229 1-460): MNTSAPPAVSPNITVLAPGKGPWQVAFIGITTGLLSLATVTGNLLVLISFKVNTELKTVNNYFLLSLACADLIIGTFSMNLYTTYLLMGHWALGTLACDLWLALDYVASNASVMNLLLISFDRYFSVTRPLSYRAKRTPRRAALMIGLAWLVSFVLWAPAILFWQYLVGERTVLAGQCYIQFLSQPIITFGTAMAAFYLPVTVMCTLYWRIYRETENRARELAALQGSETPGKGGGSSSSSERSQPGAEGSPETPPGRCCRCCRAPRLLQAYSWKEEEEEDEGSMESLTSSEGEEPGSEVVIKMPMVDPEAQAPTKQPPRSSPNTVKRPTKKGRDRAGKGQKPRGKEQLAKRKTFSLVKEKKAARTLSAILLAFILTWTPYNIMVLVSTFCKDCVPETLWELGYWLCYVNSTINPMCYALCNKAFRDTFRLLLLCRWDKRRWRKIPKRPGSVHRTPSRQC
# Summary of the method: (§1)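 Fluorescence ratio calcium read-out (Fluo-4 AM, FDSS 6000) in human M1-expressing CHO-K1 cells. Agonist activity taken as concentration-dependent rise after compound addition; potentiation as enhancement of a subsequent EC20 acetylcholine challenge. Curves from 11-point threefold dilutions fitted by four-parameter logistic; Emax expressed versus acetylcholine maximum.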
# human mAChR M1 [2] = molecular target: T1, human mAChR M1; test: mAChR M1 cell-based functional assay (calcium mobilization), agonist activity upon compound addition; conditions: CHO-K1 cells expressing hM1; for EC50: compound alone, before acetylcholine addition; for Emax: relative to the maximum for acetylcholine
# Summary of the method: as §1
SMILES,EC50 (human mAChR M1 [1]),Emax (human mAChR M1 [1]),EC50 (human mAChR M1 [2]),Emax (human mAChR M1 [2])
"Cn1cc(-c2ccc(Cn3cc(C(=O)N[C@H]4CCCCC[C@@H]4O)c4ncccc4c3=O)cn2)cn1 [Compound A18, N-((1S,2S)-2-hydroxycycloheptyl)-6-((6-(1-methyl-1H-pyrazol-4-yl)pyridin-3-yl)methyl)-5-oxo-5,6-dihydro-1,6-naphthyridine-8-carboxamide]",1.66 µM,60%,> 10 µM,< 5%
"Cc1ccc(-c2cc(F)c(Cn3cc(C(=O)N[C@H]4CCCC[C@@H]4O)c4ncccc4c3=O)c(F)c2)cn1 [Compound A35, 6-(2,6-difluoro-4-(6-methylpyridin-3-yl)benzyl)-N-((1S,2S)-2-hydroxycyclohexyl)-5-oxo-5,6-dihydro-1,6-naphthyridine-8-carboxamide]",0.55 µM,48%,> 10 µM,< 5%
"Cn1cc(-c2ccc(Cn3cc(C(=O)N[C@H]4CCCC[C@@H]4O)c4ncncc4c3=O)c(F)c2)cn1 [Compound A89, 6-(2-fluoro-4-(1-methyl-1H-pyrazol-4-yl)benzyl)-N-((1S,2S)-2-hydroxycyclohexyl)-5-oxo-5,6-dihydropyrido[4,3-d]pyrimidine-8-carboxamide]",≥ 10 µM,51%,> 10 µM,< 5%
"Cn1cc2c(-c3cc(F)c(Cn4cc(C(=O)N[C@H]5CCCCC[C@@H]5O)c5ncncc5c4=O)c(F)c3)cccc2n1 [Compound A85, 6-(2,6-difluoro-4-(2-methyl-2H-indazol-4-yl)benzyl)-N-((1S,2S)-2-hydroxycycloheptyl)-5-oxo-5,6-dihydropyrido[4,3-d]pyrimidine-8-carboxamide]",≥ 10 µM,41%,> 10 µM,< 5%
"Cn1cc(-c2ccc(Cn3cc(C(=O)N[C@H]4CCCC[C@@H]4O)c4ncccc4c3=O)c(F)c2)cn1 [Compound A7, 6-(2-fluoro-4-(1-methyl-1H-pyrazol-4-yl)benzyl)-N-((1S,2S)-2-hydroxycyclohexyl)-5-oxo-5,6-dihydro-1,6-naphthyridine-8-carboxamide]",0.29 µM,89%,–,12%
"CC(C)[C@@H](CO)NC(=O)c1cn(Cc2c(F)cc(-c3cccc4nn(C)cc34)cc2F)c(=O)c2nccnc12 [Compound A75, (S)-6-(2,6-difluoro-4-(2-methyl-2H-indazol-4-yl)benzyl)-N-(1-hydroxy-3-methylbutan-2-yl)-5-oxo-5,6-dihydropyrido[3,4-b]pyrazine-8-carboxamide]",3.54 µM,56%,> 10 µM,< 5%
"Cn1ccc(-c2ccc(Cn3cc(C(=O)N[C@H]4CCOC[C@@H]4O)c4ncccc4c3=O)c(F)c2)n1 [Compound A1, 6-(2-Fluoro-4-(1-methyl-1H-pyrazol-3-yl)benzyl)-N-((3R,4S)-3-hydroxytetrahydro-2H-pyran-4-yl)-5-oxo-5,6-dihydro-1,6-naphthyridine-8-carboxamide]",0.48 µM,90%,7.9 µM,20%
"Cc1cncc(-c2cc(F)c(Cn3cc(C(=O)N[C@H]4CCC[C@@H]4O)c4ncccc4c3=O)c(F)c2)c1 [Compound A44, 6-(2,6-difluoro-4-(5-methylpyridin-3-yl)benzyl)-N-((1S,2S)-2-hydroxycyclopentyl)-5-oxo-5,6-dihydro-1,6-naphthyridine-8-carboxamide]",≥ 10 µM,26%,> 10 µM,< 5%
"Cn1nccc1-c1ccc(Cn2cc(C(=O)N[C@H]3CCCC[C@@H]3O)c3ncccc3c2=O)c(F)c1 [Compound A46, 6-(2-fluoro-4-(1-methyl-1H-pyrazol-5-yl)benzyl)-N-((1S,2S)-2-hydroxycyclohexyl)-5-oxo-5,6-dihydro-1,6-naphthyridine-8-carboxamide]",1.13 µM,41%,> 10 µM,< 5%
"Cn1cc2c(-c3cc(F)c(Cn4cc(C(=O)NC5(CO)CCOC5)c5nccnc5c4=O)c(F)c3)cccc2n1 (stereo not drawn) [Compound A72, 6-(2,6-difluoro-4-(2-methyl-2H-indazol-4-yl)benzyl)-N-(3-(hydroxymethyl)tetrahydrofuran-3-yl)-5-oxo-5,6-dihydropyrido[3,4-b]pyrazine-8-carboxamide]",≥ 10 µM,32%,> 10 µM,< 5%
"Cn1ccc(-c2ccc(Cn3cc(C(=O)N[C@H]4CCCCC[C@@H]4O)c4nccnc4c3=O)c(F)c2)n1 [Compound A65, 6-(2-fluoro-4-(1-methyl-1H-pyrazol-3-yl)benzyl)-N-((1S,2S)-2-hydroxycycloheptyl)-5-oxo-5,6-dihydropyrido[3,4-b]pyrazine-8-carboxamide]",5.25 µM,63%,> 10 µM,6%

# Second part, the molecule after the results:
EC50 (human mAChR M1 [1]),Emax (human mAChR M1 [1]),EC50 (human mAChR M1 [2]),Emax (human mAChR M1 [2]),SMILES
0.31 µM,60%,> 10 µM,< 5%,"Cn1ccc(-c2ccc(Cn3cc(C(=O)N[C@H]4CCCCC[C@@H]4O)c4ncn(C)c4c3=O)c(F)c2)n1 [Compound C3, 5-(2-fluoro-4-(1-methyl-1H-pyrazol-3-yl)benzyl)-N-((1S,2S)-2-hydroxycycloheptyl)-3-methyl-4-oxo-4,5-dihydro-3H-imidazo[4,5-c]pyridine-7-carboxamide]"
0.037 µM,74%,1.54 µM,63%,"Cn1cc(-c2ccc(Cn3cc(C(=O)N[C@H]4CCCC[C@@H]4O)c4nccn4c3=O)c(F)c2)cn1 [Compound B6, 6-(2-fluoro-4-(1-methyl-1H-pyrazol-4-yl)benzyl)-N-((1S,2S)-2-hydroxycyclohexyl)-5-oxo-5,6-dihydroimidazo[1,2-c]pyrimidine-8-carboxamide]"
1.33 µM,70%,–,28%,"O=C(N[C@H]1CCC[C@@H]1O)c1cn(Cc2ccc(-n3cccn3)cc2)c(=O)n2ccnc12 [Compound B14, 6-(4-(1H-pyrazol-1-yl)benzyl)-N-((1S,2S)-2-hydroxycyclopentyl)-5-oxo-5,6-dihydroimidazo[1,2-c]pyrimidine-8-carboxamide]"
2.02 µM,75%,> 10 µM,8%,"Cn1cc(-c2ccc(Cn3cc(C(=O)N[C@H]4CCCCC[C@@H]4O)c4occc4c3=O)c(F)c2)cn1 [Compound D16, 5-(2-fluoro-4-(1-methyl-1H-pyrazol-4-yl)benzyl)-N-((1S,2S)-2-hydroxycycloheptyl)-4-oxo-4,5-dihydrofuro[3,2-c]pyridine-7-carboxamide]"
5.12 µM,62%,> 10 µM,< 5%,"O=C(N[C@H]1CCCC[C@@H]1O)c1cn(Cc2ccc(-n3cccn3)cc2)c(=O)c2ccoc12 [Compound D3, 5-(4-(1H-pyrazol-1-yl)benzyl)-N-((1S,2S)-2-hydroxycyclohexyl)-4-oxo-4,5-dihydrofuro[3,2-c]pyridine-7-carboxamide]"
0.21 µM,63%,5 µM,45%,"Cn1cc(-c2ccc(Cn3cc(C(=O)N[C@H]4CCCC[C@@H]4O)c4nccn4c3=O)cn2)cn1 [Compound B11, N-((1S,2S)-2-hydroxycyclohexyl)-6-((6-(1-methyl-1H-pyrazol-4-yl)pyridin-3-yl)methyl)-5-oxo-5,6-dihydroimidazo[1,2-c]pyrimidine-8-carboxamide]"
> 10 µM,25%,> 10 µM,< 5%,"CC1(C)COCCC1NC(=O)c1cn(Cc2ccc(-n3cccn3)cc2)c(=O)c2ccoc12 (stereo not drawn) [Compound D1, 5-(4-(1H-pyrazol-1-yl)benzyl)-N-(3,3-dimethyltetrahydro-2H-pyran-4-yl)-4-oxo-4,5-dihydrofuro[3,2-c]pyridine-7-carboxamide]"
2.06 µM,61%,–,17%,"Cn1cc(-c2ccc(Cn3cc(C(=O)NC4CC5(COC5)C4)c4nccn4c3=O)c(F)c2)cn1 [Compound B9, 6-(2-fluoro-4-(1-methyl-1H-pyrazol-4-yl)benzyl)-5-oxo-N-(2-oxaspiro[3.3]heptan-6-yl)-5,6-dihydroimidazo[1,2-c]pyrimidine-8-carboxamide]"
7.98 µM,54%,> 10 µM,< 5%,"Cn1cc2c(-c3cc(F)c(Cn4cc(C(=O)N[C@H]5CCCC[C@@H]5O)c5sccc5c4=O)c(F)c3)cccc2n1 [Compound D31, 5-(2,6-difluoro-4-(2-methyl-2H-indazol-4-yl)benzyl)-N-((1S,2S)-2-hydroxycyclohexyl)-4-oxo-4,5-dihydrothieno[3,2-c]pyridine-7-carboxamide]"
0.027 µM,70%,2.96 µM,64%,"Cn1cc(-c2ccc(Cn3cc(C(=O)N[C@H]4CCCCC[C@@H]4O)c4nccn4c3=O)c(F)c2)cn1 [Compound B15, 6-(2-fluoro-4-(1-methyl-1H-pyrazol-4-yl)benzyl)-N-((1S,2S)-2-hydroxycycloheptyl)-5-oxo-5,6-dihydroimidazo[1,2-c]pyrimidine-8-carboxamide]"
